In ChEMBL document CHEMBL1201862, “PubChem BioAssay data set” (2004) one finds AC50, IC50 and EC50 data, which are given here for 5 compounds.

The structures appear in SMILES notation. Activity calls are given as the source filed them.

The nature of test [1]: growth inhibition of yeast DHODH-expressing 3D7 parasites – SYBR Green, dry powder samples, dose response (AID 1159570).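 Also: parasite growth measured after 72 hours of compound exposure.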 The class given is functional, cell-based.
Test [2] can be described thus: toxicity to human HepG2 hepatoma cells – cell-based, plate reader, dry powder samples, cytotoxicity control, dose response (AID 1159569).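 Also: inhibitor potency with signal falling toward the positive control level.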 The format is functional.
Test [3] is described as follows: Dd2 parasite growth inhibition in erythrocytes – SYBR Green, dry powder samples, set 9, dose response (AID 1159568). The format is functional, cell-based.
A short description of test [4]: P. falciparum Dd2 growth inhibitors, dose response, SYBR Green, cherry-picked samples (AID 1159567). The class given is functional, cell-based.
Test [5] is described as follows: Dd2 malaria parasite growth inhibition potency – SYBR Green, dry powder samples, dose response (AID 1159566).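 Also: potency for growth inhibition with lower SYBR green DNA signal.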 The class given is functional, cell-based.
Test [6] in a line: growth inhibition of PfATP4-mutant resistant parasites – NITD609-resistant line, SYBR Green, dry powder, dose response (AID 1159571).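 Also: parasites synchronized at ring stage by sorbitol before testing.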 The class given is functional, cell-based.
Test [7] in a line: toxicity to HepG2 liver cells – cell-based, plate reader, dry powder, set 6, cytotoxicity control, dose response (AID 743311). The format is functional.
The nature of test [8]: cells. The settings on record: HEK293.
The target of test [9] is Estrogen receptor beta (Homo sapiens, UniProt Q92731). The experiment in a line: blockers of SRC-3 recruitment to ERβ – biochemical, ELISA, streptavidin-HRP readout, orthogonal assay, confirmation (AID 1060).
Sequence of Estrogen receptor beta (Q92731 whole entry): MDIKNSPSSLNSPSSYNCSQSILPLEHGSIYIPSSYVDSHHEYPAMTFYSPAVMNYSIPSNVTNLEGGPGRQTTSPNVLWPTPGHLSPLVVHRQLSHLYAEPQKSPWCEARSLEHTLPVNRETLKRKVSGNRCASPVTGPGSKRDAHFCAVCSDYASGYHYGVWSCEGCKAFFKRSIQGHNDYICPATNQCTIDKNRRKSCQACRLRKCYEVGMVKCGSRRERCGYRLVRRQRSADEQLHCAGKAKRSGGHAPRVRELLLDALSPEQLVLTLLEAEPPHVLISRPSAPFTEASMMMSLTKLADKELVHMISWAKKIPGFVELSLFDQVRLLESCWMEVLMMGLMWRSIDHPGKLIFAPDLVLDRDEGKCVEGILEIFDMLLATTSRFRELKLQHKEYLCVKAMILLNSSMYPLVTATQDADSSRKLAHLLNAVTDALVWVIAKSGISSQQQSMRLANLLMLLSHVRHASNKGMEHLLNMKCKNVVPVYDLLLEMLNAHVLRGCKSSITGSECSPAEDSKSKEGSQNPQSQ
Test [10] deals with Protein-tyrosine kinase 2-beta (Homo sapiens, UniProt Q14289).
Sequence of Protein-tyrosine kinase 2-beta (Q14289 whole entry): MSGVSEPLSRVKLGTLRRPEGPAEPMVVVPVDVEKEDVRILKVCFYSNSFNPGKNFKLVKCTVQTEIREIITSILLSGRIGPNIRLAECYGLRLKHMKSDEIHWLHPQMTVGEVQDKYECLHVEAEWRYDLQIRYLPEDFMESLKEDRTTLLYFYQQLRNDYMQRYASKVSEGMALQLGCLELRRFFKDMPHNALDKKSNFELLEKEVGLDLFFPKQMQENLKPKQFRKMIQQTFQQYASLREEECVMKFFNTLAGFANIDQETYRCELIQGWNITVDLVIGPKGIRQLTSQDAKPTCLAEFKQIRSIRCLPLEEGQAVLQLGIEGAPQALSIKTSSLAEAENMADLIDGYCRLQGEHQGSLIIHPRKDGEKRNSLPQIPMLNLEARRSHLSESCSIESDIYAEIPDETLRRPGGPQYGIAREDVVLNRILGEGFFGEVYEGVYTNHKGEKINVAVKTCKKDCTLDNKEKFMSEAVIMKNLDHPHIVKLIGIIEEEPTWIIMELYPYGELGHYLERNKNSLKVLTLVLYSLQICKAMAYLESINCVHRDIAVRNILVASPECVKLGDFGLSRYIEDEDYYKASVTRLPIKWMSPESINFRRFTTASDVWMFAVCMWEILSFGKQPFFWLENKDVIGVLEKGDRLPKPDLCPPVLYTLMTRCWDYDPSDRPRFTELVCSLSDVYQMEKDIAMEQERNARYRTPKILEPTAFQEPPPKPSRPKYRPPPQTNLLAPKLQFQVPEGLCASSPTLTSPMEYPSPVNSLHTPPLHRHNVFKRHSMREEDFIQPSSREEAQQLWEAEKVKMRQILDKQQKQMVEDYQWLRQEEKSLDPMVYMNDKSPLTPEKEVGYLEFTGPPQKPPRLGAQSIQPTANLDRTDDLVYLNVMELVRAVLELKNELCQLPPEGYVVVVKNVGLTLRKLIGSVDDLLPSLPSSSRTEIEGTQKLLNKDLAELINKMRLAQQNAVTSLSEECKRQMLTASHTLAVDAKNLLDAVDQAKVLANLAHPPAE
Test [11] deals with Nonstructural protein 1 (Influenza A virus, UniProt Q194T2). The format is functional, Influenza A virus (A/California/07/2009(H1N1)).
Sequence of Nonstructural protein 1 (Q194T2 whole entry): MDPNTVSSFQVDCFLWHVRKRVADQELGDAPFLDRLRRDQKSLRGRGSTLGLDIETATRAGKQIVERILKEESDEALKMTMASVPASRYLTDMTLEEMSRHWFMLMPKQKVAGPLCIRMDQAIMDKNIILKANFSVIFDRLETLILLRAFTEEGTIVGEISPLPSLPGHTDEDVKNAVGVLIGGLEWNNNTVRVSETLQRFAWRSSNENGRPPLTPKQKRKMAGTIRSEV
Test [12] deals with FAD-linked sulfhydryl oxidase ALR (Homo sapiens, UniProt P55789). Briefly: ALR-catalysed DTT oxidation blockers – biochemical, H2O2 detection, luminescence, cherry-pick, dose response (AID 493248).
Sequence of FAD-linked sulfhydryl oxidase ALR (P55789 whole entry): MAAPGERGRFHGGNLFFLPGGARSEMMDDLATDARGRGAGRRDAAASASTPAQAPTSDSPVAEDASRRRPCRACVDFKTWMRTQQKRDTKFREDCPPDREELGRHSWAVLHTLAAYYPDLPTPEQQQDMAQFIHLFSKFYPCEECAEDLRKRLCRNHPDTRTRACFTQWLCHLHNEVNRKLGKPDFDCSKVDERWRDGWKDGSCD
The target of test [13] is T1, DNA repair and recombination protein RAD54-like (Homo sapiens, UniProt Q92698).
T1 sequence (Q92698 whole entry): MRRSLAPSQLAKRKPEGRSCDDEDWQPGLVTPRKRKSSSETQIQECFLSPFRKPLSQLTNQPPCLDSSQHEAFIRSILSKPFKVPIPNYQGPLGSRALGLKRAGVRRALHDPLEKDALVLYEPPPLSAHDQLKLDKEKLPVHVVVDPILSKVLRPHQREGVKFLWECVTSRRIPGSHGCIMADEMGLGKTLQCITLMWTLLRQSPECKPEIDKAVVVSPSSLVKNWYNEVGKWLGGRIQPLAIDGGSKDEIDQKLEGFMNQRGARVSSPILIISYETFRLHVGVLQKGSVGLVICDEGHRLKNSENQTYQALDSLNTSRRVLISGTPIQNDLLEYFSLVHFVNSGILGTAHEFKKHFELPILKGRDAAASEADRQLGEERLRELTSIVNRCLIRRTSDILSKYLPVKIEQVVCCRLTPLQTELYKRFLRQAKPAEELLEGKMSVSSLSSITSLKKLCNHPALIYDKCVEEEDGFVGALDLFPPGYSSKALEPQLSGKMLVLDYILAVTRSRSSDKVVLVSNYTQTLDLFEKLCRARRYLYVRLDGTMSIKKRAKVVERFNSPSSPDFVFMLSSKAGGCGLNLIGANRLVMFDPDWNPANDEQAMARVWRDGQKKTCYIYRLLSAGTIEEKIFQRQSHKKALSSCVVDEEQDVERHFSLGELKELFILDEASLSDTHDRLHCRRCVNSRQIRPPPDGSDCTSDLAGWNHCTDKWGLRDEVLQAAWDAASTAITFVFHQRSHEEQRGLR
Briefly: RAD54 Holliday junction migration blockers – biochemical, fluorescence, cherry-picked samples, dose series, confirmation (AID 651657). The class given is functional.

Test [14] concerns the target T2, Rac GTPase-activating protein 1 (Homo sapiens, UniProt Q9H0H5).
T2 sequence (Q9H0H5 whole entry): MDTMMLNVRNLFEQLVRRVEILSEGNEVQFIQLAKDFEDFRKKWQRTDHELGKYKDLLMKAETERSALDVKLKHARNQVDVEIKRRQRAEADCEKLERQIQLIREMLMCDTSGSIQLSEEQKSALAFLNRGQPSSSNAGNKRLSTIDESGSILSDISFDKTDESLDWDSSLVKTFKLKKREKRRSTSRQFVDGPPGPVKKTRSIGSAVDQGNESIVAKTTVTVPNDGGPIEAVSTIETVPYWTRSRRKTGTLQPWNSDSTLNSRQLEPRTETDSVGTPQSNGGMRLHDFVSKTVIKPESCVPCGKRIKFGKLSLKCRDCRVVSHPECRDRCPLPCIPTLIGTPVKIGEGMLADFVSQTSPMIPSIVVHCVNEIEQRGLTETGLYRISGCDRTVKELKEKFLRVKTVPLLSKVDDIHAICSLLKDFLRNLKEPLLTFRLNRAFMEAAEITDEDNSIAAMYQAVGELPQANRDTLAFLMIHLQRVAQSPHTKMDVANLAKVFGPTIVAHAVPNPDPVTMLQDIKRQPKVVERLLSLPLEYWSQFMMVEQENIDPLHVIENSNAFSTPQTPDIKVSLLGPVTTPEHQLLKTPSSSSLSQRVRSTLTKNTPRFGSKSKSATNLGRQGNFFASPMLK
Briefly: blockers of MgcRacGAP-driven Rac1 GTP hydrolysis – biochemical, ADP Hunter fluorescence, primary and confirmatory, confirmation (AID 624330). The format is functional.

Test [15] has as its target Glutathione-S-transferase (Schistosoma japonicum, UniProt Q26513). Briefly: GST-antibody interaction or FRET quenching – biochemical, TR-FRET, artefact control for Vif-APOBEC3G degradation inhibitor project, dose response (AID 1117362). The format is functional.
The test system of test [16] is Streptococcus sp. 'group A'. Briefly: Streptococcus pyogenes SK(-)GAS viability under kanamycin – luminescence, BacTiterGlo, confirmation, counter-screen for streptokinase expression inhibitor project, dose response (AID 1900). The format is functional, organism-based. (In general: Counterscreens check selectivity or assay interference.)
Test [17] deals with Streptococcus. The experiment in a line: GAS UMAA2166 growth inhibition – luminescence, BacTiterGlo, counter-screen for streptokinase expression inhibitor project, dose response (AID 1915).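 Also: potency for reduction of bacterial viability or growth.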 The format is functional, organism-based.
The target in test [18] is T3, Hexokinase (Trypanosoma brucei, UniProt Q38C41).
T3 sequence (Q38C41 whole entry): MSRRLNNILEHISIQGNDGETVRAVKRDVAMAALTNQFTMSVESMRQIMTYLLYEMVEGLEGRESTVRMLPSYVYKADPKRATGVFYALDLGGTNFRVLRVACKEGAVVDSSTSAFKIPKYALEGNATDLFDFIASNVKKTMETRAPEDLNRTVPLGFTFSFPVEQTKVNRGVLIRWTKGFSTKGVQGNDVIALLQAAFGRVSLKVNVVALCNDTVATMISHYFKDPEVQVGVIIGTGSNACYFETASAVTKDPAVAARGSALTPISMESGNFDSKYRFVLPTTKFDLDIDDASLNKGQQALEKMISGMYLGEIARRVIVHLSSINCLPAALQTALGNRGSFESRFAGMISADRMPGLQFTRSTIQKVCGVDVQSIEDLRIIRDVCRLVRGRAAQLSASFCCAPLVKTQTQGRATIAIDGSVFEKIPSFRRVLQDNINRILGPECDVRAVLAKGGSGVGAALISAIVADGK
Briefly: Confirmation assay for inhibitors of Trypanosoma brucei hexokinase 1-Analogue-first series. [Related pubchem assays (depositor defined):AID1430, AID1632, AID2516, AID2560, AID2579, AID2600, AID449725, AID492951]. The format is functional.

The target in test [19] is T4, Small ubiquitin-related modifier 1 (Homo sapiens, UniProt P63165). Briefly: SUMO1 protein interaction blockers, potency – biochemical, fluorescence polarization, uHTS hits, dose response (AID 624382). Particulars: read-out: IC50_Mean. The format is functional. In general terms: Polarisation of emitted light reports the rotation of a fluorescent probe.
T4 sequence (P63165 whole entry): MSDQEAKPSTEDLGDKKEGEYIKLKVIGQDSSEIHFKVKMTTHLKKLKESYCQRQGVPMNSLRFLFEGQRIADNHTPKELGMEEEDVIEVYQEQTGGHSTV
In test [20] the target is T4, Small ubiquitin-related modifier 1. The experiment in a line: SUMO1 protein-protein binding blockers, potency – biochemical, FRET, dose response (AID 624383). The format is functional. The settings on record: read-out: IC50_Mean.
The nature of test [21]: CellTiter-Glo luminescence survival assay, SW480 colon tumor line, concentration-response curve, half-maximal inhibitory concentration (AID 1117338). The format is functional. Background: ATP-based viability assays read luminescence as a measure of living cells.
A short description of test [22]: RKO cell viability reduction, dose response, CellTiter-Glo luminescence (AID 1117322). The format is functional.
The nature of test [23]: cytotoxicity toward HCT116 cells – cell-based, CellTiter-Glo luminescence, IC50, dose response (AID 1117332). The class given is functional. The settings on record: HCT-116.
The nature of test [24]: SNU-C1 cell viability reduction, dose response, CellTiter-Glo luminescence (AID 1117323). The class given is functional, cell-based.
Test [25] can be described thus: cytotoxicity toward Colo320 cells – cell-based, CellTiter-Glo luminescence, IC50, dose response (AID 1117334). The class given is functional. Particulars: COLO 320.
Test [26] in a line: cytotoxicity toward HT-29 cells – cell-based, CellTiter-Glo luminescence, IC50, dose response (AID 1117330). The format is functional.
A short description of test [27]: Reduced DLD-1 viability, concentration-response, CellTiter-Glo luminescence (AID 1117352). The format is functional.
A short description of test [28]: rise of 2N DNA cells, HeLa – IC50, dose response (AID 1117349). The format is functional, cell-based.
The nature of test [29]: rise of 4N DNA cells, HeLa – IC50, dose response (AID 1117351). The format is functional, cell-based.
The nature of test [30]: HCT116 cell viability decrease, GSK3B pretreatment – CellTiter-Glo, IC50, dose response (AID 1117339). The class given is functional. The settings on record: HCT-116.

Sequence of Glutathione-S-transferase (Q26513 whole entry): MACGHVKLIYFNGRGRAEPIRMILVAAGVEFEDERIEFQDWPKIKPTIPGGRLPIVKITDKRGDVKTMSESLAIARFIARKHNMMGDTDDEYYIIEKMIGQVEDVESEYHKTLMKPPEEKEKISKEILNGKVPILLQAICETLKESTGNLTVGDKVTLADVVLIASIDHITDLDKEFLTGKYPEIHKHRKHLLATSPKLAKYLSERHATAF

On to `COc1ccc(C#Cc2ccc3c(c2)O[C@@H](CN(C)C(=O)Nc2cccc(OC)c2)[C@@H](C)CN([C@@H](C)CO)S3(=O)=O)cc1`, for which the AC50 (as a rule, the midpoint of the concentration-response curve, whichever way the signal moves) in test [1] is 603 nM (active); in test [2], > 100000 nM (inactive); in test [3], 399 nM (active); in [4], 1090 nM (active); in test [5] it was 405 nM (active); in test [6], 556 nM (active).
In the case of `Sc1nc2cc(Cl)ccc2n1CCOc1ccccc1`, the AC50 in [7] and in test [8] was > 52000 nM (inactive) throughout.
On to `CN1CCN(c2ccc(N)cc2)CC1`, for which the IC50 in [9] was 7130 nM (not active); in [10], 2830 nM (active); in test [11] it was 53700 nM (active); in test [14], 32300 nM (active); in test [15], 18400 nM (active). In addition, the figures for the AC50 in [12] and in test [13] were 3830 nM (active) and 21900 nM (active), respectively.
For the compound `Cc1cc(C(C#N)c2ccc(Cl)cc2)c(Cl)cc1NC(=O)c1cc(I)cc(I)c1O` (stereo unspecified) [CLOSANTEL], the concentration giving a half-maximal response (EC50) (usually the concentration giving half of the maximal effect) in [16] is 114 nM (active); in test [17], 92 nM (active). In addition, the IC50 is 25000 nM (inactive) in test [18]; > 66600 nM (inactive) in test [19]; 6590 nM (active) in [20]; 46 nM (active) in [21]; 197 nM (active) in test [22]; 97.8 nM (active) in test [23]. In addition, the IC50 in test [24] was 43.8 nM (active); in test [25], 116 nM (active); in [26], 126 nM (active); in [27], 69 nM (active).
For the compound `CC(=O)O[C@@]12CO[C@@H]1C[C@H](O)[C@@]1(C)C(=O)[C@H](O)C3=C(C)[C@@H](OC(=O)[C@H](O)[C@@H](NC(=O)OC(C)(C)C)c4ccccc4)C[C@@](O)([C@@H](OC(=O)c4ccccc4)[C@H]21)C3(C)C` [DOCETAXEL], the IC50 in test [28] is 3.1 nM (active); in test [21] it was 1 nM (active); in test [22], 1 nM (active); in [23], 1 nM (active); in test [24], > 20000 nM (inactive); in test [25] it was 1 nM (active). The values for the IC50 in test [29], in [26] and in test [30] were 3.35 nM (active), 1 nM (active) and 1 nM (active), respectively.
